Assay results from patent US20190374525A1, “TREATMENT OF DIABETES AND ASSOCIATED METABOLIC CONDITIONS WITH EPIGENETIC MODULATORS” (Temple Otorongo LLC, priority 2017, published 2019).

Tests used:
Assay type in all cases: in vivo
[1] = body weight in mouse model of severe type 2 diabetes and obesity; settings: after 9 days of treatment; FIG. 8
Procedure: (§1) Fed blood glucose levels were measured over a period of 28 days. Fasting glucose levels were measured on days 19, 29, and 30. Glucose clearance was measured using the glucose tolerance test on days 29 and 30. Body weight was also measured as compounds may regulate the expression of genes that are involved in obesity.

[2] = tested on: leptin receptor deficient transgenic mouse model (db/db); experiment: blood glucose levels in mouse model of severe type 2 diabetes and obesity; settings: for blood glucose levels: mouse model of severe type 2 diabetes and obesity, FIG. 5 (Formula (I), 11 days), FIG. 7 (Formula (II), 19 days or 29-30 days)
Procedure: as §1

[3] = tested on: leptin receptor deficient transgenic mouse model (db/db); experiment: liver enzymes (ALT and AST) in blood serum, mouse model of Type 2 diabetes and severe obesity; settings: after 29-30 days; FIG. 11

SMILES	body weight [1]	fed and fasting glucose levels ([2]; after 11 days of treatment, FIG. 5)	blood glucose levels [2]	lowering of enzymes (ALT and AST) associated with liver disease measured in blood serum [3]
CN(C)c1ccc(C(=O)NCCCCCC(=O)NO)cc1 [Formula (III)]	significantly decrease body weight			
O=C(O)c1ccnc(C(=O)O)c1 [Formula (I), 2,4-pyridinedicarboxylic acid]		decrease in fed and fasting glucose levels	significantly decrease blood glucose levels	68%
O=C(O)CCNc1cc(N2CCc3ccccc3CC2)nc(-c2ccccn2)n1 [Formula (II)]			significantly decrease blood glucose levels	
